In patent US20080009418A1, “Selective Inhibitors” (Alchemia LTD., priority 2004, published 2008):

Columns and labels:
[1] = biological target: T1, Human neuropeptide Y (NPY-Y1) (Homo sapiens, UniProt P25929); test: Radioligand binding, human neuropeptide Y NPY-Y1 membranes, FlashPlate, [125I]-PYY; settings: compound at 10 μM, [125I]-PYY
T1 construct: purchased Perkin Elmer Biosignal
T1 sequence (P25929 1-384): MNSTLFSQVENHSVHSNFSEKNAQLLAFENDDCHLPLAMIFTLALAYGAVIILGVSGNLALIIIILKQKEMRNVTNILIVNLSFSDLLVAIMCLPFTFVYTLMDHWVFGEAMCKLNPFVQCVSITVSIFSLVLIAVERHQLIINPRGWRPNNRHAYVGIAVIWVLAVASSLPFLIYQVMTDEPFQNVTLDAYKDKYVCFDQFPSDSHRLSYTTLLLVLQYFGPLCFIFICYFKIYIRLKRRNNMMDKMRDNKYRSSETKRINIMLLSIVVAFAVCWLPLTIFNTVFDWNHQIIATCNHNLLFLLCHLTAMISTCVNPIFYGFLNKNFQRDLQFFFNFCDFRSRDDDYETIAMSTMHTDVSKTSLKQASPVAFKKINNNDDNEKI
How it was run: (§1)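 Cloned human receptor membranes were coated onto FlashPlate wells and incubated with radioligand and compound (added from a 0.5 mM DMSO daughter plate) for 1 hour at room temperature in the dark. Scintillation counting gave percent inhibition, with DMSO defining total and reference ligand defining non-specific binding.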

Human δ-opioid (DOP) = biological target: T2, Human δ-opioid (DOP) (Homo sapiens, UniProt P41143); test: Radioligand binding, human δ-opioid (DOP) membranes, FlashPlate, [3H]-Bremazocine; settings: compound at 10 μM, [3H]-Bremazocine
T2 construct: purchased Perkin Elmer Biosignal
T2 sequence (P41143 whole entry): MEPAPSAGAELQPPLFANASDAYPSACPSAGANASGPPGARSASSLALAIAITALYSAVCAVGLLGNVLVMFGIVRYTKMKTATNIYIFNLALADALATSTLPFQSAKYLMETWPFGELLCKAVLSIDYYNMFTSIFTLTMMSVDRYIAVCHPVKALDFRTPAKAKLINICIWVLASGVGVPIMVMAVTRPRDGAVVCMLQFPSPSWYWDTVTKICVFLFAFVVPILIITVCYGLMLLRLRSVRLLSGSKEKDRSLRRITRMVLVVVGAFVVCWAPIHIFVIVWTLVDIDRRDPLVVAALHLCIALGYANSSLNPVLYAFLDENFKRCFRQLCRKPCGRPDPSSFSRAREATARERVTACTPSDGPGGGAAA
How it was run: as §1

Human neurokinin (NK1) = biological target: T3, Human neurokinin (NK1) (Homo sapiens, UniProt P25103); test: Radioligand binding, human neurokinin NK1 membranes, filtration, [125I]-Substance P; settings: compound at 10 μM, [125I]-Substance P
T3 construct: purchased Perkin Elmer Biosignal
T3 sequence (P25103 whole entry): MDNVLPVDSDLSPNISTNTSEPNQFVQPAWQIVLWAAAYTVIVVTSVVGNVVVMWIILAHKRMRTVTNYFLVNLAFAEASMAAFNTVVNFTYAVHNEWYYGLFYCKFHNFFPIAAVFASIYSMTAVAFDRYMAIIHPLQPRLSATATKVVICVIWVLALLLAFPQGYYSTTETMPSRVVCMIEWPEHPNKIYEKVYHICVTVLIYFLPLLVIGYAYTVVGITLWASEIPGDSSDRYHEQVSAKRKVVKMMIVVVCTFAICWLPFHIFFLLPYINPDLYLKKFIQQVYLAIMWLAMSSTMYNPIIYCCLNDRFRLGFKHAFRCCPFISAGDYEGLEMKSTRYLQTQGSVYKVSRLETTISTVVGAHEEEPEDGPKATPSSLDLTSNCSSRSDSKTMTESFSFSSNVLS
How it was run: (§2)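 Membranes from cloned human receptors were incubated with compound and radioligand for 1 hour at room temperature. Bound ligand was collected on 0.3% PEI-soaked filters, washed with cold 50 mM Tris-HCl pH 7.4, and counted by scintillation. Percent inhibition was computed against DMSO totals and reference-ligand nonspecific wells.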

Human melanocortin (MC5) = biological target: T4, Human melanocortin (MC5) (Homo sapiens, UniProt P33032); test: Radioligand binding, human melanocortin MC5 membranes, FlashPlate, [125I]-NDP-αMSH; settings: compound at 10 μM, [125I]-NDP-αMSH
T4 construct: purchased Perkin Elmer Biosignal
T4 sequence (P33032 whole entry): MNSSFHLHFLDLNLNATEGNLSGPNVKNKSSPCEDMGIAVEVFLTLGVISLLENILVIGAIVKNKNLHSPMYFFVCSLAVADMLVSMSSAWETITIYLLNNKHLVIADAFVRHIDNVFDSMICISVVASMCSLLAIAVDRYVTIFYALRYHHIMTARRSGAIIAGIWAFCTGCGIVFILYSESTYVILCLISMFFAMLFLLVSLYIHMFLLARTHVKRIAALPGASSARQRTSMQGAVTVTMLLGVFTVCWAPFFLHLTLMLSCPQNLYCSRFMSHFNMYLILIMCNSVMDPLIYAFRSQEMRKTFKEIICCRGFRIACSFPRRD
How it was run: as §1

Human Melanocortin (MC3) = biological target: T5, Human Melanocortin (MC3) (Homo sapiens, UniProt P41968); test: Radioligand binding, human melanocortin MC3 membranes, FlashPlate, [125I]-NDP-αMSH; settings: compound at 10 μM, [125I]-NDP-αMSH
T5 construct: purchased Perkin Elmer Biosignal
T5 sequence (P41968 whole entry): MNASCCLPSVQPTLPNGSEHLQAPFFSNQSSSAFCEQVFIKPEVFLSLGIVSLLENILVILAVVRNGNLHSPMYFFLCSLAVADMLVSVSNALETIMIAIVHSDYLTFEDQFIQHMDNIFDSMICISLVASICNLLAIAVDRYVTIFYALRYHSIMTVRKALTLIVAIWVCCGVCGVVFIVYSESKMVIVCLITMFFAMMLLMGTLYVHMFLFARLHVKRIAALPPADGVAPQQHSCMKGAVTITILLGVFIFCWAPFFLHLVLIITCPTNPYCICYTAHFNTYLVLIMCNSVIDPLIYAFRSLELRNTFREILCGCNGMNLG
How it was run: as §1

Human μ-opioid (MOP) = biological target: T6, Human μ-opioid (MOP) (Homo sapiens, UniProt P35372); test: Radioligand binding, human μ-opioid (MOP) membranes, FlashPlate, [3H]-Naloxone; settings: compound at 10 μM, [3H]-Naloxone
T6 construct: purchased Perkin Elmer Biosignal
T6 sequence (P35372 whole entry): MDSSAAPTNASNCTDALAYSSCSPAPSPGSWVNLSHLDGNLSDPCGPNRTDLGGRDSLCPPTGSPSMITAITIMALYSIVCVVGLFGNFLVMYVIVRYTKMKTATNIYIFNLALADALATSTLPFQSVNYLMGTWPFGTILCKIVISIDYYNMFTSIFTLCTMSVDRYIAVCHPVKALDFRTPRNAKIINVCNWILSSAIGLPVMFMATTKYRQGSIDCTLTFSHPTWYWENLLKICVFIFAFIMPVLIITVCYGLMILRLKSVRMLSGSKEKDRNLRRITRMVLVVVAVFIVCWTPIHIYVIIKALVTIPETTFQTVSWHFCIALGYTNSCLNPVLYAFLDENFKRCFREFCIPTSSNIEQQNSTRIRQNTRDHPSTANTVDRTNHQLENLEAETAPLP
How it was run: as §1

Human κ-Opioid (KOP) = biological target: T7, Human κ-Opioid (KOP) (Homo sapiens, UniProt P41145); test: Radioligand binding, human κ-opioid (KOP) membranes, filtration, [3H]-Diprenorphine; settings: compound at 10 μM, [3H]-Diprenorphine
T7 construct: purchased Perkin Elmer Biosignal
T7 sequence (P41145 whole entry): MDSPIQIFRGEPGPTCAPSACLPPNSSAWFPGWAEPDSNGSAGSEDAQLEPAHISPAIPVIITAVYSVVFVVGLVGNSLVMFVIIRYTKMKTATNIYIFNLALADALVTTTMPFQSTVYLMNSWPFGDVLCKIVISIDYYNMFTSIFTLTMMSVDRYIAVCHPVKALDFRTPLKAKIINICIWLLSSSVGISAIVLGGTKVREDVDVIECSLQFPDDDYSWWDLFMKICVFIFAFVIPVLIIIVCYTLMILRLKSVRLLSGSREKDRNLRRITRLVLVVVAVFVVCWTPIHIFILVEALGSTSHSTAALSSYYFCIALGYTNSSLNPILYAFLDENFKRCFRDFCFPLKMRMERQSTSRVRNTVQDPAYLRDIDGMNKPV
How it was run: as §2

Mouse urotensin (mUR2) = biological target: T8, Mouse urotensin (mUR2) (Mus musculus, UniProt Q8VIH9); test: Radioligand binding, mouse urotensin mUR2 membranes, FlashPlate, [125I]-Urotensin II; settings: compound at 10 μM, [125I]-Urotensin II
T8 construct: purchased Perkin Elmer Biosignal
T8 sequence (Q8VIH9 1-385): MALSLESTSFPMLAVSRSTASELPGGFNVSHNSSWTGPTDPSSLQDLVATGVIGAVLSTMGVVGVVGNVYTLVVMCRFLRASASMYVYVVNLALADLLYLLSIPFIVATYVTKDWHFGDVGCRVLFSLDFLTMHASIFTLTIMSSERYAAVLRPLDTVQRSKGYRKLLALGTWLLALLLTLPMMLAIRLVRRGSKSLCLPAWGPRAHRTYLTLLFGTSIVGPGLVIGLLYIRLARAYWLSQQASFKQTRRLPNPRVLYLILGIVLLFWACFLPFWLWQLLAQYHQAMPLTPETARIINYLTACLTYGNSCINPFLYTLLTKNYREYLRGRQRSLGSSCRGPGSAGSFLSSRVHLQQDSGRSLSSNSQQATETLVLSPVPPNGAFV
How it was run: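 Cloned mouse urotensin (mUR2) receptor membranes from Perkin Elmer Biosignal were immobilized in FlashPlate microplates using a proprietary coating. Each well got 19.5 μl buffer, then 0.5 μl of DMSO, reference ligand, or compound. Adding 5 μl of [125I]-Urotensin II, diluted to 5× final concentration in binding buffer, started binding. Plates were sealed with TopSeal-A and incubated 1 hour at room temperature in the dark. Wells were counted for 30 seconds each on a TopCount after a 60-second delay, and percentage inhibition was calculated.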

[2] = biological target: T9, Human melanin-concentrating hormone (MCH1) (Homo sapiens, UniProt Q99705); test: Radioligand binding, human melanin-concentrating hormone MCH1 membranes, FlashPlate, [125I]-S36057; settings: compound at 10 μM
T9 construct: purchased Perkin Elmer Biosignal
T9 sequence (Q99705 whole entry): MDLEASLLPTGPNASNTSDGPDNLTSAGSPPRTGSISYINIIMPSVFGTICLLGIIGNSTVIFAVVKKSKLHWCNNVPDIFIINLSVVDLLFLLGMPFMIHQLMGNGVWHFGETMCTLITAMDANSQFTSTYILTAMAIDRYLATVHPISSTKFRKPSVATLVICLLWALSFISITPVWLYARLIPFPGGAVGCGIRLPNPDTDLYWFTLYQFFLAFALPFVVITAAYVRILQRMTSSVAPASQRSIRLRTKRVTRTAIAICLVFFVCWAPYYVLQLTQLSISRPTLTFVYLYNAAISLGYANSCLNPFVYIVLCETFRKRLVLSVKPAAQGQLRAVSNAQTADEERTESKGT
How it was run: as §1

Human Melanocortin (MC4) = biological target: T10, Human Melanocortin (MC4) (Homo sapiens, UniProt P32245); test: Radioligand binding, human melanocortin MC4 membranes, FlashPlate, [125I]-NDP-αMSH; settings: compound at 10 μM, [125I]-NDP-αMSH
T10 construct: purchased Perkin Elmer Biosignal
T10 sequence (P32245 whole entry): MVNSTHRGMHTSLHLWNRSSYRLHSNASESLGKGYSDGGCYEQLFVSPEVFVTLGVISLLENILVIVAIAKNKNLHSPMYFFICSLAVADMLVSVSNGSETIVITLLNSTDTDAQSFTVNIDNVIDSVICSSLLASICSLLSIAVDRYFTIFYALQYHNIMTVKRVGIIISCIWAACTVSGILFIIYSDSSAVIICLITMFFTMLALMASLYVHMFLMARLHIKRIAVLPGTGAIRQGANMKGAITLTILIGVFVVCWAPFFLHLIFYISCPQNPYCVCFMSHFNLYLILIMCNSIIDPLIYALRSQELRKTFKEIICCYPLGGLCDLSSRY
How it was run: as §1

Human opioid (ORL1) = biological target: T11, Human opioid (ORL1) (Homo sapiens, UniProt P41146); test: Radioligand binding, human opioid ORL1 membranes, FlashPlate, [125I]-Nociceptin; settings: compound at 10 μM, [125I]-Nociceptin
T11 construct: purchased Perkin Elmer Biosignal
T11 sequence (P41146 whole entry): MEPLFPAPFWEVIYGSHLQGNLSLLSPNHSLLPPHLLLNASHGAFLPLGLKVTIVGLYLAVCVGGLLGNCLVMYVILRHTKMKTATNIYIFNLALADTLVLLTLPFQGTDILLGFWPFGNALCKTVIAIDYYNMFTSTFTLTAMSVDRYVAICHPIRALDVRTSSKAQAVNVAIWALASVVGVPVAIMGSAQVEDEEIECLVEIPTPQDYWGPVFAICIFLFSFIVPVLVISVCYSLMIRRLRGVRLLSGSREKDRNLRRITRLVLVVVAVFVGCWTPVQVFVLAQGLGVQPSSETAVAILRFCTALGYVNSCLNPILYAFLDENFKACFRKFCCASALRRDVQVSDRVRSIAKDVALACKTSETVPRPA
How it was run: as §1

SMILES: CO[C@H]1[C@H](O)[C@@H](COCc2cccc(O)c2)OC(OCc2ccc3ccccc3c2)[C@@H]1NC(=O)CCNC(=N)N (stereo partly drawn) [compound 151]
- A9 radioligand binding, percentage inhibition [1]: − (“−” indicates less than 50% inhibition at 10 μM)
- A1 radioligand binding, percentage inhibition (Human δ-opioid (DOP)): − (“−” indicates less than 50% inhibition at 10 μM)
- A8 radioligand binding, percentage inhibition (Human neurokinin (NK1)): − (“−” indicates less than 50% inhibition at 10 μM)
- A5 radioligand binding, percentage inhibition (Human melanocortin (MC5)): − (“−” indicates less than 50% inhibition at 10 μM)
- A3 radioligand binding, percentage inhibition (Human Melanocortin (MC3)): − (“−” indicates less than 50% inhibition at 10 μM)
- A7 radioligand binding, percentage inhibition (Human μ-opioid (MOP)): + (“+” indicates greater than 50% inhibition at 10 μM)
- A2 radioligand binding, percentage inhibition (Human κ-Opioid (KOP)): − (“−” indicates less than 50% inhibition at 10 μM)
- A11 radioligand binding, percentage inhibition (Mouse urotensin (mUR2)): − (“−” indicates less than 50% inhibition at 10 μM)
- A6 radioligand binding, percentage inhibition ([2]; [125I]-S36057): − (“−” indicates less than 50% inhibition at 10 μM)
- A4 radioligand binding, percentage inhibition (Human Melanocortin (MC4)): − (“−” indicates less than 50% inhibition at 10 μM)
- A10 radioligand binding, percentage inhibition (Human opioid (ORL1)): − (“−” indicates less than 50% inhibition at 10 μM)

SMILES: CSC1OC(COCc2ccccc2)C(O)C(OCc2ccc(Cl)cc2)C1NC(=O)CNC(=N)N (stereo not drawn) [compound 265]
- A9: inhibition of radioligand binding ([1]; FlashPlate): − (“−” indicates less than 50% inhibition at 10 μM)
- A1: inhibition of radioligand binding (Human δ-opioid (DOP); FlashPlate): − (“−” indicates less than 50% inhibition at 10 μM)
- A8: inhibition of radioligand binding (Human neurokinin (NK1); filtration): + (“+” indicates greater than 50% inhibition at 10 μM)
- A5: inhibition of radioligand binding (Human melanocortin (MC5); FlashPlate): − (“−” indicates less than 50% inhibition at 10 μM)
- A3: inhibition of radioligand binding (Human Melanocortin (MC3); FlashPlate): − (“−” indicates less than 50% inhibition at 10 μM)
- A7: inhibition of radioligand binding (Human μ-opioid (MOP); FlashPlate): − (“−” indicates less than 50% inhibition at 10 μM)
- A2: inhibition of radioligand binding (Human κ-Opioid (KOP); filtration): − (“−” indicates less than 50% inhibition at 10 μM)
- A11: inhibition of radioligand binding (Mouse urotensin (mUR2); FlashPlate): − (“−” indicates less than 50% inhibition at 10 μM)
- A6: inhibition of radioligand binding ([2]; [125I]-S36057, FlashPlate): − (“−” indicates less than 50% inhibition at 10 μM)
- A4: inhibition of radioligand binding (Human Melanocortin (MC4); FlashPlate): + (“+” indicates greater than 50% inhibition at 10 μM)
- A10: inhibition of radioligand binding (Human opioid (ORL1); FlashPlate): − (“−” indicates less than 50% inhibition at 10 μM)

SMILES: N=C(N)NCCC(=O)NC1C(OCc2ccc(Cl)cc2)OC(COCc2ccc3ccccc3c2)C(O)C1OCc1ccc(Cl)cc1 (stereo not drawn) [compound 426]
- A9: inhibition of radioligand binding ([1]; human NPY-Y1 membranes): + (“+” indicates greater than 50% inhibition at 10 μM)
- A1: inhibition of radioligand binding (Human δ-opioid (DOP); human DOP membranes): − (“−” indicates less than 50% inhibition at 10 μM)
- A8: inhibition of radioligand binding (Human neurokinin (NK1); human NK1 membranes): + (“+” indicates greater than 50% inhibition at 10 μM)
- A5: inhibition of radioligand binding (Human melanocortin (MC5); human MC5 membranes): + (“+” indicates greater than 50% inhibition at 10 μM)
- A3: inhibition of radioligand binding (Human Melanocortin (MC3); human MC3 membranes): + (“+” indicates greater than 50% inhibition at 10 μM)
- A7: inhibition of radioligand binding (Human μ-opioid (MOP); human MOP membranes): − (“−” indicates less than 50% inhibition at 10 μM)
- A2: inhibition of radioligand binding (Human κ-Opioid (KOP); human KOP membranes): − (“−” indicates less than 50% inhibition at 10 μM)
- A11: inhibition of radioligand binding (Mouse urotensin (mUR2); mouse mUR2 membranes): − (“−” indicates less than 50% inhibition at 10 μM)
- A6: inhibition of radioligand binding ([2]; [125I]-S36057, human MCH1 membranes): + (“+” indicates greater than 50% inhibition at 10 μM)
- A4: inhibition of radioligand binding (Human Melanocortin (MC4); human MC4 membranes): + (“+” indicates greater than 50% inhibition at 10 μM)
- A10: inhibition of radioligand binding (Human opioid (ORL1); human ORL1 membranes): + (“+” indicates greater than 50% inhibition at 10 μM)
